Target: T1, DNA topoisomerase 1 (Topo1) (Spodoptera exigua, UniProt G1FWE7)
T1 construct: Topo70, N-terminally truncated, residues 337–930, GST fusion expressed in E. coli BL21 (DE3)
T1 sequence (G1FWE7 337-930): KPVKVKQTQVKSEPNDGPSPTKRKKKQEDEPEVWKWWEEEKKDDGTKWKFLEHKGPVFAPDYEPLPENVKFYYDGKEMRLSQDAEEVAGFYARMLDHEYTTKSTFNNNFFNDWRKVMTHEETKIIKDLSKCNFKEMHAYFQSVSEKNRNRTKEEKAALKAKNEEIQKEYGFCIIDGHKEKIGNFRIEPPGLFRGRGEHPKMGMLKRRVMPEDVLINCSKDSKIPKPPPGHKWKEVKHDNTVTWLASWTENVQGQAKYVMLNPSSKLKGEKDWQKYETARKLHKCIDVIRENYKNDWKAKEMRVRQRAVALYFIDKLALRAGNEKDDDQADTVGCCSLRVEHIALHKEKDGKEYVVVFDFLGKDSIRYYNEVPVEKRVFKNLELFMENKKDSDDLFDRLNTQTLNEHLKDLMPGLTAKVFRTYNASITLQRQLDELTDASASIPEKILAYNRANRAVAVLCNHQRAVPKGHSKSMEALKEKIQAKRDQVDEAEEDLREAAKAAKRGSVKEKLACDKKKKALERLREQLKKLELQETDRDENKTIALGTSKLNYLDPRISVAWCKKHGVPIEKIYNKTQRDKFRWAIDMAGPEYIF
Experiment: pBR322 DNA relaxation assay with purified recombinant Topo1, agarose gel densitometry
Assay type: biochemical

Compound: CC[C@@]1(O)C(=O)OCc2c1cc1n(c2=O)Cc2cc3ccccc3nc2-1 [CPT, Camptothecin]
- EC50: 4.42 µM

Compound: CC[C@@]1(O)C(=O)OCc2c1cc1n(c2=O)Cc2cc3cc(O)ccc3nc2-1 [HCPT, hydroxy-camptothecin]
- EC50: 15.2 µM

From PMC3579855, “Characterization of DNA Topoisomerase-1 in Spodoptera exigua for Toxicity Evaluation of Camptothecin and Hydoxy-Camptothecin” (PLoS ONE, 2013)
